Results published in ChEMBL document CHEMBL1201862, “PubChem BioAssay data set” (2004).
The source made the active and inactive calls.

Columns and labels:
Galanin receptor type 3 = Galanin receptor type 3 (Homo sapiens, UniProt O60755); test: Fluorescence-based cell-based primary high throughput dose response assay to identify antagonists of the Galanin Receptor 3 (GalR3).; type: functional
cells = type: functional, cell-based; conditions: HEK-CNG
Beta-lactamase [1] = target: T1, Beta-lactamase (Pseudomonas aeruginosa, UniProt Q79MP6)
Beta-lactamase [2] = target: T2, Beta-lactamase (Salmonella choleraesuis (strain SC-B67), UniProt Q5J463)
Jurkat = test: blockers of NF-kB activation in T cells – Jurkat, luciferase reporter, luminescence, B- and T-cell, dose response (AID 489004); type: functional, cell-based; conditions: Homo sapiens;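 note: NF-kB luciferase reporter Jurkat cells stimulated with PMA plus ionomycin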
[3] = HEK-293T viability loss, compound-treated – cell-based, uHTS hits, cytotoxicity control for B/T-cell NF-kB inhibitor project, dose response (AID 489019); type: functional;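 note: IC50 reflects cytotoxicity as loss of cell viability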
INS1 = test: INS-1E survival protection against cytokine death – cell-based, luminescence, retest, dose response (AID 449756); type: functional; conditions: Rattus norvegicus;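 note: cell death triggered by IL-1 beta plus TNF-alpha plus IFN-gamma mixture; protective hits raise ATP signal compared with cytokine alone wells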
[4] = reduction of Shn3 3'UTR-driven luciferase in osteoblasts – cell-based, Clone20 osteoblasts, firefly luciferase, cherry-picked, dose response (AID 624132); type: functional;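 note: firefly luciferase luminescence from reporter carrying the Shn3 3'UTR in osteoblasts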
[5] = loss of viability in HepG2 cells – cell-based, CellTiter-Glo, cherry-picked, cytotoxicity control for Shn3 inhibitor project, dose response (AID 624134); type: functional
[6] = non-specific 3'UTR reporter inhibition in Clone20-Shn3RL – cell-based, Renilla luciferase, cherry-picked, counter-screen for Shn3 inhibitor project, dose response (AID 624133); type: functional
[7] = target: T3, COUP transcription factor 2 (Homo sapiens, UniProt P24468); test: Luminescence-based cell-based high throughput dose response assay to identify inhibitors of COUP-TFII (NR2F2).; type: functional;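 note: HEK293 cells transiently cotransfected with COUP-TFII expression vector and reporter; luciferase reporter luminescence driven by COUP-TFII from the pX2-168 reporter plasmid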
T3 sequence (P24468 whole entry): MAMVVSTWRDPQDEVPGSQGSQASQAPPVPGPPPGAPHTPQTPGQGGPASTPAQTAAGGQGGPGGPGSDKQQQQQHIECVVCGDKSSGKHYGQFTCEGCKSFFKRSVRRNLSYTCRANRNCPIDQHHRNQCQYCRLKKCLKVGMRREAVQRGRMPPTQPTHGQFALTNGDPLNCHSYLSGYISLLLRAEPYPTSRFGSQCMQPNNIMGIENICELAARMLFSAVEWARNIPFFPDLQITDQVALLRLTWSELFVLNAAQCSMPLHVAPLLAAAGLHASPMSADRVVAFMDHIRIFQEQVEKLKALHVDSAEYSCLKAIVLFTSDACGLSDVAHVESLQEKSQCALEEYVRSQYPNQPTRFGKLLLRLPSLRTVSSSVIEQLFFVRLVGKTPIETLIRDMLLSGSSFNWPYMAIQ

Beta-lactamase [8] = target: T2, Beta-lactamase; test: Epi-absorbance-based counterscreen for selective VIM-2 inhibitors: dose response biochemical high throughput screening assay to identify inhibitors of TEM-1 serine-beta-lactamase.
Beta-lactamase [9] = target: T1, Beta-lactamase; test: inhibition of IMP-1 beta-lactamase activity – biochemical, epi-absorbance, selectivity assay for VIM-2 inhibitor project, dose response (AID 1920)
Beta-lactamase [10] = target: T1, Beta-lactamase; test: […] counterscreen for selective VIM-2 inhibitors: dose response biochemical high throughput screening assay to identify inhibitors of IMP-1 metallo-beta-lactamase.
[11] = target: T4, Probable nicotinate-nucleotide adenylyltransferase (Staphylococcus aureus (strain N315), UniProt P65502); type: functional, Staphylococcus aureus subsp. aureus N315;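 for IC50 Mean: confirmatory dose-response retesting of NadD inhibitor hits first found in an ultra-high-throughput screen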
[12] = target: T4, Probable nicotinate-nucleotide adenylyltransferase; type: functional, Staphylococcus aureus subsp. aureus N315; conditions: read-out: IC50_Mean
Large T antigen = Large T antigen (Simian virus 40, UniProt P03070); type: functional, Betapolyomavirus macacae;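 note: Confirmatory-stage PubChem screen for compounds that inhibit SV40 T antigen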
[13] = Trypanosoma cruzi growth suppression in host cells – NIH3T3 host cells, beta-gal luminescence, confirmation (AID 2044); type: functional, cell-based;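 note: intracellular parasites grown in NIH/3T3 mouse fibroblasts as host cells; luminescent beta-galactosidase reporter signal from transgenic T. cruzi replicating inside host cells; inhibitors lower the luminescence signal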
[14] = NIH3T3 cell viability loss – ATP luminescence, mouse fibroblasts, counter-screen, dose response (AID 2010); type: functional, cell-based;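 note: cells exposed to compound for about 90 hours before reading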
[15] = Fluorescence-based cell-based high throughput dose response assay for inhibitors of the interaction of nucleotide-binding oligomerization domain containing 2 (NOD2) and the receptor-interacting serine-threonine kinase 2 (RIPK2).; type: functional; conditions: Homo sapiens
Beta Lactamase = Beta Lactamase (Pseudomonas aeruginosa, UniProt Q932Y6); test: BLA reporter interference, concentration series – BLA reporter cells, FRET fluorescence, artefact control for NOD2-RIPK2 interaction inhibitor project, dose response (AID 651552); type: functional, cell-based
[16] = target: FAD-linked sulfhydryl oxidase ALR (Homo sapiens, UniProt P55789); test: ALR-catalysed DTT oxidation blockers – biochemical, H2O2 detection, luminescence, cherry-pick, dose response (AID 493248)
FAD-linked sulfhydryl oxidase ALR, sequence (P55789 whole entry): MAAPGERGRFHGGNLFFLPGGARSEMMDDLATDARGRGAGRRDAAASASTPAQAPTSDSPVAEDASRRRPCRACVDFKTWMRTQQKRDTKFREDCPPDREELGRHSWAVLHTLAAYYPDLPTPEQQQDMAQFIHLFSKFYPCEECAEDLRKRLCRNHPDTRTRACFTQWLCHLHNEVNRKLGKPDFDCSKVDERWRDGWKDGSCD

T1 sequence (Q79MP6 whole entry): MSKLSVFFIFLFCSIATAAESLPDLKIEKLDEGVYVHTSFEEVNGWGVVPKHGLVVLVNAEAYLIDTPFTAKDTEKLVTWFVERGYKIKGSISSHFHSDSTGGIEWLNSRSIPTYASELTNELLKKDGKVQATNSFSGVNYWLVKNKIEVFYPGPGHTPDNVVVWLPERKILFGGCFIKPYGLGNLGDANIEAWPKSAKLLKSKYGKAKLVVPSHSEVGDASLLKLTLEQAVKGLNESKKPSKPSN
T2 sequence (Q5J463 whole entry): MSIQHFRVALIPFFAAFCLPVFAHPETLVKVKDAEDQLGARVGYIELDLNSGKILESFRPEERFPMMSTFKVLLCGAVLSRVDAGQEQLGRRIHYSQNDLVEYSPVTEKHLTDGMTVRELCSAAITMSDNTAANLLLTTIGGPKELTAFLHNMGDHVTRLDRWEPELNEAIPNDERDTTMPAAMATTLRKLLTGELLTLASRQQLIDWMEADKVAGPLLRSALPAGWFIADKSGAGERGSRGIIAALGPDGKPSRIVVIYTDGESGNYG
T4 sequence (P65502 whole entry): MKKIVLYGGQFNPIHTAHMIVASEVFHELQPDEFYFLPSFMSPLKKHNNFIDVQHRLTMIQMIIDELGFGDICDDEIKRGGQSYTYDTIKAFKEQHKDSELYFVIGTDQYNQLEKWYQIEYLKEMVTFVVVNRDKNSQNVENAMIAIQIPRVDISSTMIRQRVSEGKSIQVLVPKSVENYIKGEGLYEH
Galanin receptor type 3, sequence (O60755 whole entry): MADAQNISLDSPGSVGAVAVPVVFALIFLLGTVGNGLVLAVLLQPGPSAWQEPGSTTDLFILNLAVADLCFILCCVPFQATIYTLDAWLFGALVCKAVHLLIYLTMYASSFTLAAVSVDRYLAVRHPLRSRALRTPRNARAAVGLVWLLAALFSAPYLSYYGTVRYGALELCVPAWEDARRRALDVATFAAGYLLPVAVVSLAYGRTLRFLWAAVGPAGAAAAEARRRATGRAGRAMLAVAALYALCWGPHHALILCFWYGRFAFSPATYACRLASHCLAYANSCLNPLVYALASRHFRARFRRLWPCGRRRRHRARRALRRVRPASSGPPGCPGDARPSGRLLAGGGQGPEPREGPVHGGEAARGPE
Beta Lactamase, sequence (Q932Y6 whole entry): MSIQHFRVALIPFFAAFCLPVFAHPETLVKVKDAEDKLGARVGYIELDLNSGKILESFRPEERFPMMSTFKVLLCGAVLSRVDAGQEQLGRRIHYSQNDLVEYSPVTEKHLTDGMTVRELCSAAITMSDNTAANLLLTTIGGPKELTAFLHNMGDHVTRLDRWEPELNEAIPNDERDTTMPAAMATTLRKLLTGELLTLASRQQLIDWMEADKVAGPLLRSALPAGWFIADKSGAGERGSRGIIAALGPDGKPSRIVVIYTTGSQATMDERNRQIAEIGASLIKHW
Large T antigen, sequence (P03070 whole entry): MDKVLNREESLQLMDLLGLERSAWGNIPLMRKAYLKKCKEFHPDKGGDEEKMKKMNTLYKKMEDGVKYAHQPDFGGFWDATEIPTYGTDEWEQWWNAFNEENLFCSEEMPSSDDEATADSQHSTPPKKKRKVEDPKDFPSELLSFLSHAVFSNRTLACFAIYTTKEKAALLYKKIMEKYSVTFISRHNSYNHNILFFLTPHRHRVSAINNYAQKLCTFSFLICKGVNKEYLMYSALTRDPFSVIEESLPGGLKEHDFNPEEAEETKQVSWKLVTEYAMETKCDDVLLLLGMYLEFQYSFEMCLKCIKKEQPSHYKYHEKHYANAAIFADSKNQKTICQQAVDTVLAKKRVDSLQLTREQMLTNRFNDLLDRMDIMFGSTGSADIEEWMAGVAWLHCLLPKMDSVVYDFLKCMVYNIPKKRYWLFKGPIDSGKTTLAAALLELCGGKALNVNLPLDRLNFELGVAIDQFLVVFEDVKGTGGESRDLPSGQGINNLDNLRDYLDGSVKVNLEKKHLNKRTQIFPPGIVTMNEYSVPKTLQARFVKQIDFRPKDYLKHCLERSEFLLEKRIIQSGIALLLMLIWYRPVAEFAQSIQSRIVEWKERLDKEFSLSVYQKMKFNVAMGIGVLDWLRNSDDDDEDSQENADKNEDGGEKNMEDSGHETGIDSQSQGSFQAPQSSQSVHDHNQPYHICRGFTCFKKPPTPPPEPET

For `CCC(NCCC(c1ccccc1)c1ccccc1)=C1C(=O)NC(=O)NC1=O`, the IC50 (Galanin receptor type 3) was 5.36 µM (active) and the EC50 (cells) was > 29.9 µM (inactive).

With `CCCCC(Sc1nc(N)c(NC(=O)c2ccco2)c(=O)[nH]1)C(=O)O` (configuration not stated) the IC50 (Beta-lactamase [1]) was > 59.6 µM (inactive) and the IC50 (Beta-lactamase [2]) was > 59.6 µM (inactive).

In the case of `COc1ccc(CN(C)c2ccc(S(=O)(=O)N3CCN(C)CC3)cc2[N+](=O)[O-])cc1OC`, the IC50 (Jurkat) is reported as > 80 µM (inactive), the IC50 [3] is reported as > 80 µM (inactive) and the AC50 (INS1) is reported as 1.45 µM (active). For the same compound, the AC50 [4] was 0.691 µM (active), the AC50 [5] was 0.824 µM (active) and the AC50 [6] was 23.8 µM (active). The IC50 (Galanin receptor type 3) was 0.419 µM (active), the EC50 (cells) was > 29.9 µM (inactive) and the IC50 [7] was 2.05 µM (active).

For `Sc1nnc(C2CC2)n1Cc1ccco1`, the IC50 (Beta-lactamase [8]) was > 59.6 µM (inactive), the IC50 (Beta-lactamase [9]) was > 59.6 µM (inactive) and the IC50 (Beta-lactamase [10]) was > 59.6 µM (inactive).

In the case of `CCC(=O)Nc1ccc(C(=O)COC(=O)c2nc3nccc(C)n3n2)cc1`, the IC50 [11] is reported as 1.92 µM (active) and the IC50 [12] is reported as 4.5 µM (active).

In the case of `O=C(Nc1cccc(N2C(=O)C=CC2=O)c1)c1cccs1`, the IC50 (Large T antigen) is reported as 70.5 µM (active), the EC50 [13] is reported as 2.12 µM (active) and the EC50 [14] is reported as 4.6 µM (active). The IC50 [15] was 2.27 µM (active) and the IC50 (Beta Lactamase) was 14.1 µM (inactive).

With `O=C(O)c1c(C(=O)O)c(-c2ccc(Br)cc2)n2c1CSC2` the IC50 (Beta-lactamase [8]) was > 59.6 µM (inactive), the IC50 (Beta-lactamase [9]) was > 59.6 µM (inactive) and the IC50 (Beta-lactamase [10]) was 41.9 µM (inactive). The AC50 [16] was 5.35 µM (active).
